From ChEMBL document CHEMBL5154765, “Design, synthesis, and biological evaluation of novel spiro[pyrrolidine-2,3'-quinolin]-2'-one derivatives as potential chitin synthase inhibitors and antifungal agents” (Eur J Med Chem, 2022)
Converted amounts (≈) assume the structure as drawn. *1 amine or outer side, *2 acyl side, *3 side chain or, on linkers, in order; H or OH if unused. Where a SMILES comes first, the peptide text is derived from it. Bridges are numbered along the chain shown (N, C = ends). [ ]: non-standard residue; d: D form. The star is where a group is joined. hTyr(3S-OH,4S-OH,3'-OSO3H) = N[C@H](C(=O)O)[C@H](O)[C@@H](O)c1ccc(O)c(OS(=O)(=O)O)c1; Orn(4R-OH,5R-OH) = O=C([C@H](C[C@@H](O)[C@@H](O)N[*:3])N[*:1])[*:2]; Pro(3S-OH,4S-Me) = C[C@H]1CN[C@H](C(=O)O)[C@H]1O; X1 = CCCCCOc1ccc(-c2cc(-c3ccc(C(=O)*)cc3)no2)cc1; Gln(3R-OH) = NC(=O)C[C@@H](O)[C@H](N)C(=O)O; Hyp = O=C(O)[C@@H]1C[C@@H](O)CN1

Key:
[1] = tested on: Aspergillus fumigatus; assay: Antifungal activity against Aspergillus fumigatus GIMCC 3.19 assessed as reduction in fungal growth in presence of sorbitol incubated for 24 hrs by two fold broth dilution method; format: functional
[2] = tested on: Candida albicans; assay: Antifungal activity against fluconazole resistant Candida albicans ATCC 76615 assessed as reduction in fungal growth incubated for 24 hrs by two fold broth dilution method; format: functional
[3] = tested on: Candida albicans; assay: Antifungal activity against micafungin resistant Candida albicans ATCC 76615 assessed as reduction in fungal growth incubated for 24 hrs by two fold broth dilution method; format: functional
[4] = tested on: Aspergillus flavus; assay: Antifungal activity against Aspergillus flavus ATCC 16870 assessed as reduction in fungal growth in presence of sorbitol incubated for 24 hrs by two fold broth dilution method; format: functional
[5] = tested on: Candida tropicalis; assay: Inhibition of Candida tropicalis ATCC750 chitin synthase at 300 ug/ml using UDP-GlcNAc as substrate incubated for 1 hr by microplate reader analysis relative to control; details: dose 300.0 µg/ml
[6] = Inhibition of Candida tropicalis ATCC750 chitin synthase using UDP-GlcNAc as substrate incubated for 1 hr by microplate reader analysis
[7] = tested on: Aspergillus fumigatus; assay: Antifungal activity against fluconazole resistant Aspergillus fumigatus GIMCC 3.19 assessed as reduction in fungal growth incubated for 24 hrs by two fold broth dilution method; format: functional
[8] = tested on: Aspergillus flavus; assay: Antifungal activity against Aspergillus flavus ATCC 16870 assessed as reduction in fungal growth incubated for 24 hrs by two fold broth dilution method; format: functional
[9] = tested on: Candida albicans; assay: Antifungal activity against Candida albicans ATCC 76615 assessed as reduction in fungal growth in presence of sorbitol incubated for 24 hrs by two fold broth dilution method; format: functional
[10] = tested on: Cryptococcus neoformans; assay: Antifungal activity against Cryptococcus neoformans ATCC 32719 assessed as reduction in fungal growth in presence of sorbitol incubated for 24 hrs by two fold broth dilution method; format: functional
[11] = tested on: Cryptococcus neoformans; assay: Antifungal activity against Cryptococcus neoformans ATCC 32719 assessed as reduction in fungal growth incubated for 24 hrs by two fold broth dilution method; format: functional
[12] = tested on: Cryptococcus neoformans; assay: Antifungal activity against fluconazole resistant Cryptococcus neoformans ATCC 32719 assessed as reduction in fungal growth incubated for 24 hrs by two fold broth dilution method; format: functional
[13] = tested on: Aspergillus fumigatus; assay: Antifungal activity against Aspergillus fumigatus GIMCC 3.19 assessed as reduction in fungal growth incubated for 24 hrs by two fold broth dilution method; format: functional
[14] = tested on: Candida albicans; assay: Antifungal activity against Candida albicans ATCC 76615 assessed as reduction in fungal growth incubated for 24 hrs by two fold broth dilution method; format: functional
[15] = tested on: Aspergillus flavus; assay: Antifungal activity against fluconazole resistant Aspergillus flavus ATCC 16870 assessed as reduction in fungal growth incubated for 24 hrs by two fold broth dilution method; format: functional

Compound | MIC [1] [µg/mL] | MIC [2] [µg/mL] | MIC [3] [µg/mL] | MIC [4] [µg/mL] | inhibition [5] [%] | IC50 [6] [µM] | MIC [7] [µg/mL] | MIC [8] [µg/mL] | MIC [9] [µg/mL] | MIC [10] [µg/mL] | MIC [11] [µg/mL] | MIC [12] [µg/mL] | MIC [13] [µg/mL] | MIC [14] [µg/mL] | MIC [15] [µg/mL]
O=C(/C=C/C(=O)N1CCCC12Cc1ccccc1NC2=O)Nc1ccc(Cl)cc1Cl (centres undefined) | 64 | 64 (≈ 144 µM) | 64 (≈ 144 µM) | 128 | 73.7 | 170 | 64 (≈ 144 µM) | 8 (≈ 18 µM) | 64 | 128 | 16 (≈ 36 µM) | 64 (≈ 144 µM) | 8 (≈ 18 µM) | 4 (≈ 9 µM) | 64 (≈ 144 µM)
Cc1ccccc1NC(=O)/C=C/C(=O)N1CCCC12Cc1ccccc1NC2=O (centres undefined) | – | – | – | – | 47.2 | 970 | – | 16 (≈ 41.1 µM) | – | – | 64 (≈ 164 µM) | – | 8 (≈ 20.5 µM) | 8 (≈ 20.5 µM) | –
O=C(/C=C/C(=O)N1CCCC12Cc1ccccc1NC2=O)Nc1cccc2ccccc12 (centres undefined) | – | – | – | – | 53.6 | 570 | – | 16 (≈ 37.6 µM) | – | – | 64 (≈ 150 µM) | – | 16 (≈ 37.6 µM) | 8 (≈ 18.8 µM) | –
Cc1cccc(NC(=O)/C=C/C(=O)N2CCCC23Cc2ccccc2NC3=O)c1 (centres undefined) | – | – | – | – | 44.1 | 1210 | – | 32 (≈ 82.2 µM) | – | – | 128 (≈ 329 µM) | – | 64 (≈ 164 µM) | 16 (≈ 41.1 µM) | –
COc1ccccc1NC(=O)/C=C/C(=O)N1CCCC12Cc1ccccc1NC2=O (centres undefined) | – | – | – | – | 65.2 | 300 | – | 16 (≈ 39.5 µM) | – | – | 64 (≈ 158 µM) | – | 8 (≈ 19.7 µM) | 8 (≈ 19.7 µM) | –
COc1cccc(NC(=O)/C=C/C(=O)N2CCCC23Cc2ccccc2NC3=O)c1 (centres undefined) | – | – | – | – | 48.3 | 770 | – | 16 (≈ 39.5 µM) | – | – | 32 (≈ 78.9 µM) | – | 32 (≈ 78.9 µM) | 8 (≈ 19.7 µM) | –
CCCCCOc1ccc(-c2cc(-c3ccc(C(=O)N[C@H]4C[C@@H](O)[C@@H](O)NC(=O)[C@@H]5[C@@H](O)[C@@H](C)CN5C(=O)[C@H]([C@H](O)CC(N)=O)NC(=O)[C@H]([C@H](O)[C@@H](O)c5ccc(O)c(OS(=O)(=O)O)c5)NC(=O)[C@@H]5C[C@@H](O)CN5C(=O)[C@H]([C@@H](C)O)NC4=O)cc3)no2)cc1 [MICAFUNGIN] (X1-[Orn(4R-OH,5R-OH)]T[Hyp][hTyr(3S-OH,4S-OH,3'-OSO3H)][Gln(3R-OH)][Pro(3S-OH,4S-Me)]; lactam 1-C) | – | – | > 256 | – | – | – | – | – | – | – | – | – | – | – | –
Cc1ccc(NC(=O)/C=C/C(=O)N2CCCC23Cc2ccccc2NC3=O)cc1 (centres undefined) | – | – | – | – | 46.4 | 1070 | – | 16 (≈ 41.1 µM) | – | – | 64 (≈ 164 µM) | – | 64 (≈ 164 µM) | 32 (≈ 82.2 µM) | –
OC(Cn1cncn1)(Cn1cncn1)c1ccc(F)cc1F [FLUCONAZOLE] | – | > 256 | – | – | – | – | > 256 | 8 (≈ 26.1 µM) | – | – | 8 (≈ 26.1 µM) | > 256 | 4 (≈ 13.1 µM) | 4 (≈ 13.1 µM) | > 256
Cc1cc(C)cc(NC(=O)/C=C/C(=O)N2CCCC23Cc2ccccc2NC3=O)c1 (centres undefined) | – | – | – | – | 45.7 | 990 | – | 32 (≈ 79.3 µM) | – | – | 32 (≈ 79.3 µM) | – | 32 (≈ 79.3 µM) | 16 (≈ 39.7 µM) | –
COc1ccc(NC(=O)/C=C/C(=O)N2CCCC23Cc2ccccc2NC3=O)cc1 (centres undefined) | – | – | – | – | 50.9 | 590 | – | 32 (≈ 78.9 µM) | – | – | 32 (≈ 78.9 µM) | – | 8 (≈ 19.7 µM) | 16 (≈ 39.5 µM) | –
NC(=O)OC[C@H](O)[C@@H](O)[C@H](N)C(=O)N[C@H](C(=O)O)[C@H]1O[C@@H](n2cc(CO)c(=O)[nH]c2=O)[C@H](O)[C@@H]1O [POLYOXIN B] | 64 | – | – | 64 | 86.1 | 90 | – | 8 (≈ 15.8 µM) | 64 | 128 | 16 (≈ 31.5 µM) | – | 8 (≈ 15.8 µM) | 8 (≈ 15.8 µM) | –
O=C(/C=C/C(=O)N1CCCC12Cc1ccccc1NC2=O)Nc1ccc(Br)cc1 (centres undefined) | – | – | – | – | 56.4 | 520 | – | 16 (≈ 35.2 µM) | – | – | 16 (≈ 35.2 µM) | – | 16 (≈ 35.2 µM) | 8 (≈ 17.6 µM) | –
O=C(/C=C/C(=O)N1CCCC12Cc1ccccc1NC2=O)Nc1ccc(Cl)cc1 (centres undefined) | 64 | 128 (≈ 312 µM) | 128 (≈ 312 µM) | 64 | 71.8 | 170 | 64 (≈ 156 µM) | 8 (≈ 19.5 µM) | 32 | 128 | 16 (≈ 39 µM) | 128 (≈ 312 µM) | 4 (≈ 9.76 µM) | 4 (≈ 9.76 µM) | 64 (≈ 156 µM)
COc1cc(NC(=O)/C=C/C(=O)N2CCCC23Cc2ccccc2NC3=O)c(OC)cc1Cl (centres undefined) | – | – | – | – | 67.9 | 200 | – | 16 (≈ 34 µM) | – | – | 32 (≈ 68.1 µM) | – | 32 (≈ 68.1 µM) | 8 (≈ 17 µM) | –
O=C(/C=C/C(=O)N1CCCC12Cc1ccccc1NC2=O)Nc1ccccc1Cl (centres undefined) | 64 | 32 (≈ 78.1 µM) | 32 (≈ 78.1 µM) | 128 | 76.1 | 120 | 32 (≈ 78.1 µM) | 8 (≈ 19.5 µM) | 32 | 64 | 8 (≈ 19.5 µM) | 32 (≈ 78.1 µM) | 4 (≈ 9.76 µM) | 4 (≈ 9.76 µM) | 16 (≈ 39 µM)
